Non-standard residues stand in square brackets, D forms with d. Residues, ends and D or L forms follow the SMILES beside them.
Experiments:
[1] = system: mitochondrial membrane potential (ΔΨm) in U-87MG cells; experiment: Mitochondrial membrane potential (TMRM); format: cell-based, human; conditions: 3 h
Description: Figure 2 Mode of action of VDAC1-based peptides – interacting with- and detaching HK, releasing Cyto c, decreasing ATP level and inducing apoptosis A. Purified HK-II was fluorescently labeled using the NanoTemper protein-labeling Kit BLUE. […] Then, 3-5 μl of the samples were loaded into MST-grade glass capillaries and thermophoresis was measured using a Monolith-NT115 apparatus, as described in Materials and methods available online in Supplemental information. […] The final DMSO concentration in control and peptide-treated cells was 0.07%. Fixed cells were visualized using confocal microscopy (Olympus 1×81), as described in Materials and Methods available online in Supplemental information. […] The levels of HK in the supernatants were quantified and are presented as relative units. D. D-ΔN-Ter-Antp induces mitochondrial inner membrane depolarization analyzed as described in Materials and Methods available online in Supplemental information. […] Cells then were analyzed for Δψ using TMRM. Δψ is presented as percentage of control. […] Release of Cyto c from the mitochondria was analyzed by immunostaining using anti-Cyto c antibodies and confocal microscopy (Olympus 1×81) as described in Materials and Methods available online in Supplemental information. […] Quantification of apoptosis in control and peptide's treated cells are presented bellow the images. […]

[2] = system: SH-SY5Y cells; experiment: Apoptosis by acridine orange/ethidium bromide staining, SH-SY5Y; format: cell-based, human; conditions: 3 h, Suppl Fig 2B
Description: […] The cells were then trypsinized, centrifuged (1500xg, 5 min), washed with PBS and analyzed for cell death using propidium iodide (PI) staining and flow cytometer (Beckton-Dickinson, San Jose, CA) and BD CellQuest Pro software. Apoptotic cell death was also analyzed by PI and annexin V-FITC staining, and by acridine orange and ethidium bromide staining and light microscopy (Olympus LX2-KSP).
Supplementary Figure 2: Mode of action of VDAC1-based peptides. […]
detachment. SH-SY5Y cells (4×10^4/ml) were grown on cover slips, transfected with plasmid pEGFP-HK-I and after 24 h, were incubated […]
The final DMSO concentration in control and peptide-treated cells was 0.07%. Fixed cells were stained with DAPI and visualized by confocal microscopy (Olympus 1X81). Arrows indicate cells […]
showing diffusion of HK-I-GFP. B-C. […] B. SH-SY5Y cells were treated with the indicated […]
Arrows and arrowheads indicate cells with membrane blebbing (early apoptotic state) and late apoptotic states, respectively. C. Morphological analysis of apoptosis by electron microscopy (EM). For transmission EM, U-87MG cells (1.6 x10^6 /ml) were incubated with the indicated concentrations of D-ΔN-Ter-Antp peptide or DMSO (0.3% final concentration) for 6 h in serum-free medium. […]

SMILES: CC[C@@H](C)[C@@H](NC(=O)[C@@H](CCCCN)NC(=O)[C@H](NC(=O)[C@@H](CCC(N)=O)NC(=O)[C@@H](CCCNC(=N)N)NC(=O)[C@@H](CC(C)C)NC(=O)CNC(=O)[C@@H](Cc1ccccc1)NC(=O)CNC(=O)[C@@H](Cc1ccc(O)cc1)NC(=O)CNC(=O)[C@@H](CCCCN)NC(=O)[C@H](NC(=O)[C@@H](Cc1ccccc1)NC(=O)[C@H](NC(=O)[C@@H](CC(=O)O)NC(=O)[C@H](N)CCCNC(=N)N)C(C)C)[C@H](C)O)[C@H](C)CC)C(=O)N[C@H](Cc1c[nH]c2ccccc12)C(=O)N[C@H](Cc1ccccc1)C(=O)N[C@H](CCC(N)=O)C(=O)N[C@H](CC(N)=O)C(=O)N[C@H](CCCNC(=N)N)C(=O)N[C@H](CCCNC(=N)N)C(=O)N[C@H](CCSC)C(=O)N[C@H](CCCCN)C(=O)N[C@H](Cc1c[nH]c2ccccc12)C(=O)N[C@H](CCCCN)C(=O)N[C@H](CCCCN)C(=O)O [D-ΔN-Ter-Antp] (H-[dR][dD][dV][dF][dT][dK]G[dY]G[dF]G[dL][dR][dQ][dI][dK][dI][dW][dF][dQ][dN][dR][dR][dM][dK][dW][dK][dK]-OH; N-terminus and C-terminus assumed)
- mitochondrial membrane potential (TMRM fluorescence) [1]: decrease in ΔΨm

SMILES: CC[C@H](C)[C@H](NC(=O)[C@H](C)NC(=O)[C@@H](N)Cc1c[nH]cn1)C(=O)N[C@@H](Cc1ccc(O)cc1)C(=O)N1CCC[C@H]1C(=O)N[C@@H](CCCNC(=N)N)C(=O)N[C@@H](Cc1c[nH]cn1)C(=O)N[C@@H](CO)C(=O)N[C@@H](Cc1c[nH]c2ccccc12)C(=O)N[C@H](C(=O)N[C@@H](Cc1c[nH]c2ccccc12)C(=O)N[C@@H](CCC(=O)O)C(=O)N[C@H](CCCCN)C(=O)N[C@H](CCCCN)C(=O)N[C@H](CC(C)C)C(=O)N[C@H](CCC(=O)O)C(=O)N[C@@H](C(=O)N[C@H](C)C(=O)N[C@@H](C(=O)N[C@H](CC(N)=O)C(=O)N[C@H](CC(C)C)C(=O)N[C@H](C)C(=O)N[C@H](Cc1c[nH]c2ccccc12)C(=O)N[C@@H](C(=O)N[C@H](C)C(=O)NCC(=O)N[C@H](CC(N)=O)C(=O)N[C@H](CO)C(=O)N[C@H](CC(N)=O)C(=O)N[C@@H](CCCCN)C(=O)N[C@@H](Cc1c[nH]c2ccccc12)C(=O)N[C@H](C(=O)N[C@@H](Cc1c[nH]c2ccccc12)C(=O)N[C@@H](CCCCN)C(=O)O)[C@@H](C)O)[C@H](C)O)C(C)C)[C@H](C)O)[C@@H](C)O [Tf-D-LP4]
- apoptosis induction, SH-SY5Y [2]: induce apoptosis

Source: article PMC5458211, “Mitochondrial VDAC1-based peptides: Attacking oncogenic properties in glioblastoma” (Oncotarget, 2017)
